Reference: paper PMC11434868, “Synthesis and Antiproliferative Effect of 3,4,5-Trimethoxylated Chalcones on Colorectal and Prostatic Cancer Cells” (Pharmaceuticals, 2024)
Like-named read-outs stand apart in the source and are kept apart here.

Assays:
HCT116 = assay: MTT assay, antiproliferative effect on HCT116; format: cell-based; details: Homo sapiens
Experimental: (§1) Human CRC (HCT116 and HT-29) and PCa (DU145 and PC3) cell lines were purchased from the American Type Culture Collection (ATCC—LGC Standards, Molsheim, France). All cells were grown in RPMI 1640 medium supplemented with 10% FBS, 1% L-glutamine, 100 U/mL penicillin, and 100 μg/mL streptomycin. Cultures were maintained in a humidified atmosphere containing 5% CO2 at 37 °C. Cells were seeded in 75 cm^2 culture flasks at 1.2 × 10^4 cells/cm^2 for HCT116, DU145, and PC3 cells, and 2.0 × 10^4 for HT-29 cells. Cells were grown for 24 h in culture medium prior to exposure or not to obtain the synthesized compounds. Stock solutions (10^−2 M in DMSO) of each compound were diluted in culture medium to obtain appropriate final concentrations.
(§2) • (a) MTT assay: The antiproliferative effect of all compounds was determined using MTT assay (a metabolic activity test). Briefly, cells were seeded in 96-well culture plates at 4 × 10^3 cells/well for HCT116, PC3, and DU145 cells and 6 × 10^3 cells/well for HT-29 cells (100 µL/well), and grown for 24 h in culture medium prior to exposure or not to obtain compounds 1–15 with concentrations ranging from 5 nM to 50 μM. After 24 and 48 h of treatment, MTT (5 mg/mL in PBS) was added and incubated for another 3 h. MTT was then removed from the wells before adding 100 μL/well of DMSO. The optical density was detected with a microplate reader (Multiskan FC, Thermoscientific, Bordeaux, France) at 550 nm and cell viability was expressed as a percentage of each treatment condition compared to control cells. IC50 values were calculated for all compounds from the dose–response curve. Data are expressed as the arithmetic means ± standard error of the mean (SEM) of separate experiments. All experiments were performed at least in triplicate. • (b) Trypan blue dye exclusion method: Cells were grown for 24 h then treated with compounds 10 and 13 at indicated concentrations. After 48 h of treatment, cells were trypsinized and resuspended in complete medium. Each sample was mixed with Trypan blue solution (0.14% in HBSS, Invitrogen-GIBCO, ThermoFisher, Illkirch, France). Colored (non-viable) and dye-excluding (viable) cells were counted with the LUNA-II automated cell Counter (Logos Biosystems; MC2, Aubière, France). The control was normalized to 100% including viable and dead cells. The results indicated on the histograms were expressed as the percentage of cells compared to the control. IC50 values were determined from the percentages of viable cells compared to the control.

HT-29 = assay: MTT assay, antiproliferative effect on HT-29; format: cell-based, human
Experimental: as §1, §2

DU145 = assay: MTT assay, antiproliferative effect on DU145; format: cell-based; details: Homo sapiens
Experimental: as §1, §2

PC3 = assay: MTT assay, antiproliferative effect on PC3; format: cell-based; details: Homo sapiens
Experimental: as §1, §2

[1] = system: cellular microtubules in HeLa cells; assay: Quantitative assay of the cellular microtubule content (immunoluminescence); format: cell-based; details: 30 min incubation
Experimental: The assay was realized as described by Laisne et al.. Briefly, 7500 HeLa cells were seeded in 96-well microplates (#655086, Greiner bioOne, Courtaboeuf, France) in 100 µL of complete medium per well and then incubated at 37 °C in 5% CO2 for 24 h. Cells were then treated for 30 min at 37 °C with the compounds at concentrations ranging from 0.1 to 1000 µM (1 microplate per molecule, 1 concentration per column), with 0.1% DMSO used as […] (6 wells per microplate). After medium aspiration, treated cells were permeabilized for 10 min using 100 µL per well of warmed (37 °C) OPT buffer (80 mM Pipes, 1 mM EGTA, 1 mM MgCl2, 0.5% Triton X-100, and 10% glycerol, pH 6.8). Cells were fixed overnight at room temperature using 100 µL per well of 4% formaldehyde (Sigma Aldrich, #252549, Saint-Quentin-Fallavier, France) in PBS. Cells were washed 3 times in PBS, 0.1% Tween-20 (100 µL per well), then primary anti-alpha-tubulin antibody (clone α3A1), 1:5000 in PBS 2% Bovine Serum Albumin (BSA), was added for 45 min. Cells were washed twice again and secondary anti-mouse antibody coupled to HRP (1:2000 in PBS 2% BSA, #715-035-150, Jackson Immuno-Research Laboratories, Cambridgeshire, UK) was added for 45 min. Then, cells were washed again with PBS and 100 µL of ECL substrate (#170-5061, Bio-Rad Laboratories Inc., Hercules, CA, USA) was injected in each well using the FLUOstar OPTIMA Microplate Reader (BMG Lab technology, Champagny-sur-Marne, France). The luminescent signal was read immediately after ECL injection. IC50 values were calculated using GraphPad Prism software (10.3.1 version) and are presented in the text as means ± SEM of three independent experiments.

[2] = system: human CRC (HCT116 and HT-29) and human PCa (DU145 and PC3) cell lines; assay: MTT assay, summary statements over the cell lines; format: cell-based; details: Homo sapiens, 48 h; read-out: IC50 over the four cell lines
Experimental: as §1, §2

[3] = HCT-116, 24 h, read-out: IC50 HCT116 24 h
[4] = HCT-116, 48 h, read-out: IC50 HCT116 48 h
[5] = Homo sapiens, HT-29, 24 h, 24 h, read-out: IC50 HT-29 24 h
[6] = Homo sapiens, HT-29, 48 h, 48 h, read-out: IC50 HT-29 48 h
[7] = DU-145, 24 h, read-out: IC50 DU145 24 h
[8] = DU-145, 48 h, read-out: IC50 DU145 48 h
[9] = PC-3, 24 h, read-out: IC50 PC3 24 h
[10] = PC-3, 48 h, read-out: IC50 PC3 48 h
[11] = 48 h, read-out: IC50 HT-29 48 h

SMILES: COc1cc(C(=O)/C=C/c2ccccc2O)cc(OC)c1OC [chalcone 1, (E)-3-(2-hydroxyphenyl)-1-(3,4,5-trimethoxyphenyl)prop-2-en-1-one]
- IC50 (HCT116; [3]): 4.54 ± 0.65 µM
- IC50 (HCT116; [4]): 3.27 ± 0.11 µM
- IC50 (HT-29; [5]): 10.8 ± 0.57 µM
- IC50 (HT-29; [6]): 9.65 ± 0.12 µM
- IC50 (DU145; [7]): 5.33 ± 0.42 µM
- IC50 (DU145; [8]): 3.6 ± 0.1 µM
- IC50 (PC3; [9]): 5.04 ± 0.29 µM
- IC50 (PC3; [10]): 4.23 ± 0.35 µM

SMILES: COc1cc(C(=O)/C=C/c2ccc(O)cc2)cc(OC)c1OC [chalcone 3, (E)-3-(4-hydroxyphenyl)-1-(3,4,5-trimethoxyphenyl)prop-2-en-1-one]
- IC50 (HCT116; [3]): 11.62 ± 0.06 µM
- IC50 (HCT116; [4]): 12.1 ± 0.44 µM
- IC50 (HT-29; [5]): 17.9 ± 0.69 µM
- IC50 (HT-29; [6]): 15.1 ± 0.46 µM
- IC50 (DU145; [7]): 11.3 ± 0.48 µM
- IC50 (DU145; [8]): 11.2 ± 0.44 µM
- IC50 (PC3; [9]): 10.94 ± 0.1 µM
- IC50 (PC3; [10]): 9.85 ± 0.43 µM
- IC50 depolymerization of cellular microtubules [1]: no effect

SMILES: COc1cc(O)ccc1/C=C/C(=O)c1cc(OC)c(OC)c(OC)c1 [chalcone 4, (E)-3-(4-hydroxy-2-methoxyphenyl)-1-(3,4,5-trimethoxyphenyl)prop-2-en-1-one]
- IC50 (HCT116; [3]): 8.79 ± 0.39 µM
- IC50 (HCT116; [4]): 3.98 ± 0.22 µM
- IC50 (HT-29; [5]): 21.3 ± 0.94 µM
- IC50 (HT-29; [6]): 17.7 ± 0.29 µM
- IC50 (DU145; [7]): 4.2 ± 0.2 µM
- IC50 (DU145; [8]): 2.69 ± 0.22 µM
- IC50 (PC3; [9]): 4.8 ± 0.48 µM
- IC50 (PC3; [10]): 3.05 ± 0.12 µM

SMILES: COc1ccc(O)cc1/C=C/C(=O)c1cc(OC)c(OC)c(OC)c1 [chalcone 5, (E)-3-(5-hydroxy-2-methoxyphenyl)-1-(3,4,5-trimethoxyphenyl)prop-2-en-1-one]
- IC50 (HCT116; [3]): 8.72 ± 0.41 µM
- IC50 (HCT116; [4]): 4.92 ± 0.49 µM
- IC50 (HT-29; [11]): 22.1 ± 0.48 µM
- IC50 (HT-29; [5]): 25.2 ± 1.28 µM
- IC50 (HT-29; [6]): > 20 µM
- IC50 (DU145; [7]): 5.5 ± 0.26 µM
- IC50 (DU145; [8]): 4.37 ± 0.3 µM
- IC50 (PC3; [9]): 5.54 ± 0.31 µM
- IC50 (PC3; [10]): 4 ± 0.3 µM

SMILES: COc1ccc(O)c(/C=C/C(=O)c2cc(OC)c(OC)c(OC)c2)c1 [chalcone 6, (E)-3-(2-hydroxy-5-methoxyphenyl)-1-(3,4,5-trimethoxyphenyl)prop-2-en-1-one]
- IC50 (HCT116; [3]): 5.27 ± 0.37 µM
- IC50 (HCT116; [4]): 3.44 ± 0.42 µM
- IC50 (HT-29; [5]): 12.3 ± 0.37 µM
- IC50 (HT-29; [6]): 10.6 ± 0.62 µM
- IC50 (DU145; [7]): 2.84 ± 0.14 µM
- IC50 (DU145; [8]): 2.7 ± 0.1 µM
- IC50 (PC3; [9]): 3.31 ± 0.22 µM
- IC50 (PC3; [10]): 2.81 ± 0.16 µM

SMILES: COc1ccc(/C=C/C(=O)c2cc(OC)c(OC)c(OC)c2)c(O)c1 [chalcone 7, (E)-3-(2-hydroxy-4-methoxyphenyl)-1-(3,4,5-trimethoxyphenyl)prop-2-en-1-one]
- IC50 (HCT116; [3]): 13.4 ± 0.21 µM
- IC50 (HCT116; [4]): 3.99 ± 0.16 µM
- IC50 (HT-29; [5]): 14.4 ± 0.65 µM
- IC50 (HT-29; [6]): 11.4 ± 0.68 µM
- IC50 (DU145; [7]): 2.99 ± 0.33 µM
- IC50 (DU145; [8]): 1.33 ± 0.16 µM
- IC50 (PC3; [9]): 2.57 ± 0.44 µM
- IC50 (PC3; [10]): 1.47 ± 0.27 µM

SMILES: COc1cc(/C=C/C(=O)c2cc(OC)c(OC)c(OC)c2)ccc1O [chalcone 9, (E)-3-(4-hydroxy-3-methoxyphenyl)-1-(3,4,5-trimethoxyphenyl)prop-2-en-1-one]
- IC50 (HCT116; [3]): 8.58 ± 0.28 µM
- IC50 (HCT116; [4]): 3.48 ± 0.19 µM
- IC50 (HT-29; [11]): 26.8 ± 0.4 µM
- IC50 (HT-29; [5]): 32.6 ± 0.51 µM
- IC50 (HT-29; [6]): > 20 µM
- IC50 (DU145; [7]): 3.75 ± 0.15 µM
- IC50 (DU145; [8]): 2.41 ± 0.08 µM
- IC50 (PC3; [9]): 4.42 ± 0.24 µM
- IC50 (PC3; [10]): 2.97 ± 0.13 µM

SMILES: COc1cc(C(=O)/C=C/c2ccc(=O)[nH]c2)cc(OC)c1OC [chalcone 11, (E)-5-(3-oxo-3-(3,4,5-trimethoxyphenyl)prop-1-en-1-yl)pyridin-2(1H)-one]
- IC50 (HCT116; [3]): 25.2 ± 0.48 µM
- IC50 (HCT116; [4]): 16.6 ± 0.79 µM
- IC50 (HT-29; [11]): 23.6 ± 0.37 µM
- IC50 (HT-29; [5]): 35.6 ± 0.94 µM
- IC50 (HT-29; [6]): > 20 µM
- IC50 (DU145; [7]): 22.3 ± 0.76 µM
- IC50 (DU145; [8]): 15.6 ± 0.84 µM
- IC50 (PC3; [9]): 24.5 ± 0.64 µM
- IC50 (PC3; [10]): 17.7 ± 0.55 µM
- IC50 [2]: > 15 µM
- melting point: 217 to 219 °C

SMILES: COc1cc(C(=O)/C=C/c2coc3ccccc3c2=O)cc(OC)c1OC [chalcone 12, (E)-3-(3-oxo-3-(3,4,5-trimethoxyphenyl)prop-1-en-1-yl)-4H-chromen-4-one]
- IC50 (HCT116; [3]): 14.2 ± 0.41 µM
- IC50 (HCT116; [4]): 13.2 ± 0.4 µM
- IC50 (HT-29; [5]): 13.6 ± 0.3 µM
- IC50 (HT-29; [6]): 13.2 ± 0.42 µM
- IC50 (DU145; [7]): 10.8 ± 0.34 µM
- IC50 (DU145; [8]): 11.7 ± 0.29 µM
- IC50 (PC3; [9]): 11.5 ± 0.28 µM
- IC50 (PC3; [10]): 12.2 ± 0.23 µM
- melting point: 215 to 217 °C

SMILES: COc1cc(C(=O)/C=C/c2coc3ccc(C(C)C)cc3c2=O)cc(OC)c1OC [chalcone 14, (E)-6-isopropyl-3-(3-oxo-3-(3,4,5-trimethoxyphenyl)prop-1-en-1-yl)-4H-chromen-4-one]
- IC50 (HCT116; [3]): 15.3 ± 0.52 µM
- IC50 (HCT116; [4]): 13.3 ± 0.3 µM
- IC50 (HT-29; [5]): 22.9 ± 0.72 µM
- IC50 (HT-29; [6]): 17 ± 1.41 µM
- IC50 (DU145; [7]): 13.2 ± 0.49 µM
- IC50 (DU145; [8]): 12.4 ± 0.2 µM
- IC50 (PC3; [9]): 14.11 ± 0.04 µM
- IC50 (PC3; [10]): 12.8 ± 0.37 µM
- melting point: 183 to 185 °C

SMILES: COc1cc(C(=O)/C=C/c2coc3ccc(O)cc3c2=O)cc(OC)c1OC [chalcone 15, (E)-6-hydroxy-3-(3-oxo-3-(3,4,5-trimethoxyphenyl)prop-1-en-1-yl)-4H-chromen-4-one]
- IC50 (HCT116; [3]): 5.84 ± 0.28 µM
- IC50 (HCT116; [4]): 14.1 ± 0.27 µM
- activity against the HT-29 cell line (HT-29): not active
- IC50 (HT-29; [5]): > 50 µM
- IC50 (DU145; [7]): 3.88 ± 0.32 µM
- IC50 (DU145; [8]): 7.09 ± 0.52 µM
- IC50 (PC3; [9]): 6.48 ± 0.4 µM
- IC50 (PC3; [10]): 7.6 ± 0.44 µM
